Usually MIC stands for the lowest concentration found to suppress growth. Lower therefore signals a more susceptible organism.

What all share (type): functional
The subject of assay [1] is Staphylococcus aureus. The experiment in a line: Antibacterial activity against Staphylococcus aureus ATCC 33591 harboring ribosomal ermA mutant.
Assay [2] has as its system Escherichia coli. The experiment in a line: Antibacterial activity against Escherichia coli DK/2058G harboring ribosomal A2058G mutant.
The test system of assay [3] is Staphylococcus aureus. The experiment in a line: Antibacterial activity against Staphylococcus aureus UCN14 harboring ribosomal A2058U mutant.
Assay [4] relates to Escherichia coli. The experiment in a line: Antibacterial activity against wild-type Escherichia coli DK/pKK3535.
In assay [5] the test system is Escherichia coli. The experiment in a line: Antibacterial activity against Escherichia coli SQ171/2058G harboring ribosomal A2058G mutant.

Values after ≈ are worked out from the molar mass of the structure shown.

In the case of `CC[C@H]1OC(=O)[C@H](C)C(=O)C[C@@H](O[C@@H]2O[C@H](C)C[C@H](N(C)C)[C@H]2O)[C@](C)(OC/C=C/c2cnc3ccccc3c2)CCC(=O)C[C@H]2NC(=O)O[C@@]21C`, the MIC in the assay with Staphylococcus aureus [1] was greater than 64 µg/mL; in the assay on Escherichia coli [2], 1 µg/mL (≈ 1.38 µM); in the assay with Staphylococcus aureus [3], greater than 256 µg/mL; against Escherichia coli [4], 2 µg/mL (≈ 2.76 µM); in the assay on Escherichia coli [5], greater than 256 µg/mL.
